This is an account of results in ChEMBL document CHEMBL3124812, “Benzamidobenzoic acids as potent PqsD inhibitors for the treatment of Pseudomonas aeruginosa infections” (Eur J Med Chem, 2014).

One may read the inhibition as the change of the read-out against control, counted positive when it falls. Usually IC50 stands for the concentration that gives 50% inhibition.

The source made the active and inactive calls. No cut-off for these calls is given here.

For one experiment, the system named is Pseudomonas aeruginosa. Kind of experiment: Inhibition of Pseudomonas aeruginosa His-6-tagged PqsD expressed in Escherichia coli BL21 (lambdaDE3) using anthraniloyl-CoA/beta-ketodecanoic acid at 50 uM as substrate by LC-MS/MS analysis.
Settings: not given
For the compound `COc1ccc(-c2cc(NC(=O)c3ccc(-c4ccccc4)cc3)c(C(=O)O)s2)cc1`, the inhibition came out at 45%.

Compound `O=C(Nc1cccc(F)c1C(=O)O)c1ccc(-c2ccccc2)cc1` had an inhibition of 21%.

In the case of `COc1ccc(NC(=O)c2ccc(-c3ccccc3)cc2)c(C(=O)O)c1`, the inhibition was found to be 46%.

On to `O=C(Nc1cccc(Cl)c1C(=O)O)c1ccc(-c2ccccc2)cc1`, for which the inhibition is 20%.

In the case of `COc1cc(NC(=O)c2cccc(Oc3ccccc3)c2)c(C(=O)O)cc1OC`, the inhibition came to 27%.

Consider `Cc1ccc(NC(=O)c2ccc(-c3ccccc3)cc2)c(C(=O)O)c1`, for which the inhibition came to 42%.

`O=C(Nc1ccc(F)cc1C(=O)O)c1cccc(Oc2ccccc2)c1`: the inhibition amounted to 57%.

On to `O=C(Nc1ccccc1C(=O)O)c1cccc(Oc2ccccc2)c1`, for which the inhibition was determined as 37%.

In turn, `COc1cc(NC(=O)c2ccc(-c3ccccc3)cc2)c(C(=O)O)cc1OC` gave an inhibition of 27%.

In turn, `O=C(Nc1ccccc1C(=O)O)c1ccc(-c2ccccc2)cc1` displayed an inhibition of 55%.

In the case of `O=C(Nc1cc(-c2ccc(Cl)cc2)sc1C(=O)O)c1ccc(-c2ccccc2)cc1`, the inhibition was found to be 35%.

In the next experiment the test system is Escherichia coli. Kind of experiment: Inhibition of Escherichia coli RNAP assessed as incorporation of [5,6-3H]UTP at 200 uM preincubated for 10 mins followed by DNA template and ATP, CTP, GTP, UTP, [5,6-3H]UTP addition measured after 10 mins by scintillation counting analysis.
Settings: not given
For the compound `O=C(Nc1ccccc1C(=O)O)c1cccc(S(=O)(=O)N2CCCC2)c1`, the inhibition result is “inactive”.

As to `CCN(CC)S(=O)(=O)c1cccc(C(=O)Nc2cc([N+](=O)[O-])ccc2C(=O)O)c1`, the inhibition entry was “inactive”.

Take `O=C(Nc1ccccc1C(=O)O)c1cccc(S(=O)(=O)N2CCCCCC2)c1`: the inhibition entry is “inactive”.

As to `O=C(Nc1ccsc1C(=O)O)c1ccc(-c2ccccc2)cc1`, the inhibition is 28%.

As for `CCN(CC)S(=O)(=O)c1cccc(C(=O)Nc2cc(F)ccc2C(=O)O)c1`, the inhibition result is “inactive”.

As for `CCN(CC)S(=O)(=O)c1cc(C(=O)Nc2ccccc2C(=O)O)ccc1Br`, the inhibition result is “inactive”.

As for `CCN(CC)S(=O)(=O)c1cccc(C(=O)Nc2ccc(-c3cccc(C(=O)O)c3)cc2C(=O)O)c1`, the inhibition stood at 24%.

`CCN(CC)S(=O)(=O)c1ccc(C(=O)Nc2ccc(Br)cc2C(=O)O)cc1`: the inhibition is 28%.

For the compound `CCN(CC)S(=O)(=O)c1cccc(C(=O)Nc2ccc(-c3cccc(C(N)=O)c3)cc2C(=O)O)c1`, the inhibition came out at 45%.

For `CCN(Cc1ccccc1)S(=O)(=O)c1cccc(C(=O)Nc2ccccc2C(=O)O)c1`, the inhibition came out at 29%.

Consider `CCN(CC)S(=O)(=O)c1ccc(C(=O)Nc2ccccc2C(=O)O)cc1`, for which the inhibition entry is “inactive”.

For the compound `CCc1ccc(C(=O)Nc2ccccc2C(=O)O)cc1S(=O)(=O)N(CC)CC`, the inhibition result is “inactive”.

As for `CCN(CC)C(=O)c1cccc(C(=O)Nc2ccc(Br)cc2C(=O)O)c1`, the inhibition entry was “inactive”.

Regarding `CCN(CC)S(=O)(=O)c1cccc(C(=O)Nc2cccc(Cl)c2C(=O)O)c1`, the inhibition entry is “inactive”.

For the compound `CN(C)S(=O)(=O)c1cccc(C(=O)Nc2ccccc2C(=O)O)c1`, the inhibition entry is “inactive”.

Regarding `O=C(Nc1ccccc1C(=O)O)c1cccc(S(=O)(=O)N2CCOCC2)c1`, the inhibition result was “inactive”.

Take `O=C(Nc1ccccc1C(=O)O)c1cccc(S(=O)(=O)N2CCCCC2)c1`: the inhibition entry is “inactive”.

With `CCN(CC)S(=O)(=O)c1cccc(C(=O)Nc2cccc(F)c2C(=O)O)c1`, the inhibition result is “inactive”.

For the compound `CCN(CC)S(=O)(=O)c1cccc(C(=O)Nc2ccc(C#N)cc2C(=O)O)c1`, the inhibition result was “inactive”.

In the case of `CCN(CC)S(=O)(=O)c1cccc(C(=O)Nc2cccc(OC)c2C(=O)O)c1`, the inhibition entry was “inactive”.

As to `CCCN(CCC)S(=O)(=O)c1cccc(C(=O)Nc2ccccc2C(=O)O)c1`, the inhibition entry was “inactive”.

As for `CCN(CC)S(=O)(=O)c1cc(C(=O)Nc2ccccc2C(=O)O)ccc1C`, the inhibition entry was “inactive”.

For `CCN(CC)S(=O)(=O)c1cccc(C(=O)Nc2cccc(O)c2C(=O)O)c1`, the inhibition result is “inactive”.

In the case of `CCN(CC)S(=O)(=O)c1cccc(C(=O)Nc2ccccc2C(=O)O)c1`, the inhibition result was “inactive”.

With `CCN(CC)S(=O)(=O)c1cccc(C(=O)Nc2ccc(C)cc2C(=O)O)c1`, the inhibition entry was “inactive”.

For the compound `CCN(CC)C(=O)c1cccc(C(=O)Nc2ccccc2C(=O)O)c1`, the inhibition result was “inactive”.

For `O=C(Nc1cscc1C(=O)O)c1ccc(-c2ccccc2)cc1`, the inhibition was determined as 33%.

As for `NS(=O)(=O)c1cccc(C(=O)Nc2ccccc2C(=O)O)c1`, the inhibition entry is “inactive”.

Take `O=C(O)c1ccc(Br)c(NC(=O)c2ccc(-c3ccccc3)cc2)c1`: the inhibition was 25%.

In the next experiment the test system is Escherichia coli. Kind of experiment: Inhibition of Escherichia coli RNAP assessed as incorporation of [5,6-3H]UTP at 100 uM preincubated for 10 mins followed by DNA template and ATP, CTP, GTP, UTP, [5,6-3H]UTP addition measured after 10 mins by scintillation counting analysis.
Settings: not given
Turning to `CCN(CC)S(=O)(=O)c1cccc(C(=O)Nc2cc(Cl)ccc2C(=O)O)c1`, the inhibition result is “inactive”.

As for `CCN(CC)S(=O)(=O)c1cccc(C(=O)Nc2ccc([N+](=O)[O-])cc2C(=O)O)c1`, the inhibition came to 30%.

As to `CCN(CC)S(=O)(=O)c1cccc(C(=O)Nc2ccc(F)cc2C(=O)O)c1`, the inhibition result is “inactive”.

For `CCN(CC)S(=O)(=O)c1cccc(C(=O)Nc2ccc(-c3ccccc3)cc2C(=O)O)c1`, the inhibition result was “inactive”.

As for `CCN(CC)S(=O)(=O)c1cc(C(=O)Nc2ccc(F)cc2C(=O)O)ccc1Br`, the inhibition entry is “inactive”.

In a further experiment the test system is Escherichia coli. Kind of experiment: Inhibition of Escherichia coli RNAP assessed as incorporation of [5,6-3H]UTP at 50 uM preincubated for 10 mins followed by DNA template and ATP, CTP, GTP, UTP, [5,6-3H]UTP addition measured after 10 mins by scintillation counting analysis.
Settings: not given
Regarding `CCN(CC)S(=O)(=O)c1cccc(C(=O)Nc2ccc(C(F)(F)F)cc2C(=O)O)c1`, the inhibition result is “inactive”.

Test system in a further experiment: not listed separately
Kind of experiment: Inhibition of Pseudomonas aeruginosa His-6-tagged PqsD expressed in Escherichia coli BL21 (lambdaDE3) using anthraniloyl-CoA/beta-ketodecanoic acid as substrate by LC-MS/MS analysis.
Settings: not given
`N#Cc1cc(Br)ccc1NC(=O)c1ccc(-c2ccccc2)cc1`: the IC50 result is reported as “Not Active”.

`COC(=O)c1cc(Br)ccc1NC(=O)c1ccc(-c2ccccc2)cc1`: the IC50 result is recorded as “Not Active”.

As to `COc1cccc(NC(=O)c2ccc(-c3ccccc3)cc2)c1C(=O)O`, the IC50 result is listed as “Not Active”.

`O=C(Nc1ccccc1C(=O)O)c1ccccc1`: the half-maximal inhibitory concentration (IC50) entry is “Not Active”.

For the compound `NC(=O)c1cc(Br)ccc1NC(=O)c1ccc(-c2ccccc2)cc1`, the IC50 result is recorded as “Not Active”.

As for `O=C(O)c1ccc(Br)c(NC(=O)c2ccc(-c3ccccc3)cc2)c1`, the IC50 result is “Not Active”.

The same experiment, now with this note: read-out: IC50.
In the case of `N#Cc1ccc(NC(=O)c2ccc(-c3ccccc3)cc2)c(C(=O)O)c1`, the IC50 stood at 8.6 µM.

As to `O=C(Nc1c(Cl)cccc1C(=O)O)c1ccc(-c2ccccc2)cc1`, the concentration for half-maximal inhibition (IC50) was 6.2 µM.

`O=C(Nc1cc(Br)ccc1C(=O)O)c1cccc(Oc2ccccc2)c1`: the IC50 stood at 5.1 µM.

For the compound `O=C(Nc1cc(-c2ccccc2)ccc1C(=O)O)c1cccc(Oc2ccccc2)c1`, the IC50 was 6.6 µM.

On to `O=C(Nc1cc(Br)ccc1C(=O)O)c1ccc(-c2ccccc2)cc1`, for which the half-inhibitory concentration (IC50) is 3.2 µM.

As to `O=C(Nc1ccc(-c2ccccc2)cc1C(=O)O)c1cccc(Oc2ccccc2)c1`, the IC50 is 7.7 µM.

Consider `O=C(Nc1cc(-c2ccccc2)sc1C(=O)O)c1ccc(-c2ccccc2)cc1`, for which the 50% inhibitory concentration (IC50) stood at 9.8 µM.

Take `O=C(Nc1ccsc1C(=O)O)c1ccc(-c2ccccc2)cc1`: the 50% inhibitory concentration (IC50) came out at 5.2 µM.

Consider `O=C(Nc1ccc(O)cc1C(=O)O)c1ccc(-c2ccccc2)cc1`, for which the half-maximal inhibitory concentration (IC50) turned out to be 4.2 µM.

Regarding `O=C(O)c1cc(Br)cc(NC(=O)c2ccc(-c3ccccc3)cc2)c1`, the IC50 amounted to 32.6 µM.

Regarding `O=C(Nc1sccc1C(=O)O)c1ccc(-c2ccccc2)cc1`, the half-maximal inhibitory concentration (IC50) is 15.7 µM.

On to `O=C(Nc1cc(F)ccc1C(=O)O)c1ccc(-c2ccccc2)cc1`, for which the IC50 was 18.2 µM.

`O=C(Nc1ccc(Br)cc1C(=O)O)c1cccc(Cc2ccccc2)c1`: the IC50 stood at 5 µM.

For the compound `O=C(Nc1ccc(Cl)cc1C(=O)O)c1ccc(-c2ccccc2)cc1`, the IC50 was 3.8 µM.

With `O=C(Nc1cc(Cl)ccc1C(=O)O)c1cccc(Oc2ccccc2)c1`, the IC50 worked out at 5.7 µM.

`O=C(Nc1cc(Cl)ccc1C(=O)O)c1ccc(-c2ccccc2)c(Oc2ccccc2)c1`: the IC50 was 5 µM.

As to `O=C(Nc1ccccc1C(=O)O)c1ccc(-c2ccccc2)c(Oc2ccccc2)c1`, the IC50 was found to be 6.6 µM.

Take `O=C(Nc1ccc(Br)cc1C(=O)O)c1ccc(-c2ccccc2)cc1`: the IC50 was found to be 3.2 µM.

As for `O=C(Nc1cc(Cl)ccc1C(=O)O)c1ccc(-c2ccccc2)cc1`, the half-inhibitory concentration (IC50) worked out at 8.7 µM.

Consider `O=C(Nc1ccc(C(F)(F)F)cc1C(=O)O)c1ccc(-c2ccccc2)cc1`, for which the half-maximal inhibitory concentration (IC50) amounted to 3.4 µM.

In the case of `O=C(O)c1cc(Br)ccc1NS(=O)(=O)c1ccc(-c2ccccc2)cc1`, the 50% inhibitory concentration (IC50) is 1.3 µM.

For `O=C(Nc1ccc(Br)cc1C(=O)O)c1cccc(Oc2ccccc2)c1`, the half-maximal inhibitory concentration (IC50) amounted to 4.4 µM.

Regarding `O=C(Nc1ccc(OC(F)(F)F)cc1C(=O)O)c1ccc(-c2ccccc2)cc1`, the concentration for half-maximal inhibition (IC50) came to 4 µM.

For the compound `O=C(Nc1cc(F)ccc1C(=O)O)c1ccc(-c2ccccc2)c(Oc2ccccc2)c1`, the IC50 is 6 µM.

As for `O=C(Nc1ccc(F)cc1C(=O)O)c1ccc(-c2ccccc2)cc1`, the IC50 is 15.2 µM.

Consider `O=C(Nc1cc(C(F)(F)F)ccc1C(=O)O)c1ccc(-c2ccccc2)cc1`, for which the half-maximal inhibitory concentration (IC50) is 4.9 µM.

As for `O=C(Nc1cc([N+](=O)[O-])ccc1C(=O)O)c1ccc(-c2ccccc2)cc1`, the IC50 stood at 3.3 µM.

For `O=C(Nc1cscc1C(=O)O)c1ccc(-c2ccccc2)cc1`, the IC50 worked out at 19.5 µM.

Test system in another experiment: not listed separately
Kind of experiment: Inhibition of Escherichia coli RNAP assessed as incorporation of [5,6-3H]UTP preincubated for 10 mins followed by DNA template and ATP, CTP, GTP, UTP, [5,6-3H]UTP addition measured after 10 mins by scintillation counting analysis.
Settings: not given
Take `N#Cc1cc(Br)ccc1NC(=O)c1ccc(-c2ccccc2)cc1`: the half-inhibitory concentration (IC50) result is “Not Active”.

As to `COC(=O)c1cc(Br)ccc1NC(=O)c1ccc(-c2ccccc2)cc1`, the IC50 entry was “Not Active”.

Consider `NC(=O)c1cc(Br)ccc1NC(=O)c1ccc(-c2ccccc2)cc1`, for which the IC50 result is listed as “Not Active”.

Staying with this experiment, now noted: read-out: IC50.
On to `COc1ccc(-c2cc(NC(=O)c3ccc(-c4ccccc4)cc3)c(C(=O)O)s2)cc1`, for which the IC50 is 9 µM.

Consider `O=C(Nc1cc(-c2ccccc2)sc1C(=O)O)c1ccc(-c2ccccc2)cc1`, for which the IC50 worked out at 10 µM.

In the case of `O=C(O)c1cc(Br)cc(NC(=O)c2ccc(-c3ccccc3)cc2)c1`, the IC50 turned out to be 110 µM.

With `O=C(Nc1sccc1C(=O)O)c1ccc(-c2ccccc2)cc1`, the half-inhibitory concentration (IC50) amounted to 161 µM.

`O=C(O)c1cc(Br)ccc1NS(=O)(=O)c1ccc(-c2ccccc2)cc1`: the IC50 is 35 µM.

`CCN(CC)S(=O)(=O)c1cccc(C(=O)Nc2ccc(-c3ccc(C(N)=O)cc3)cc2C(=O)O)c1`: the IC50 came out at 78 µM.

For the compound `O=C(Nc1cc(-c2ccc(Cl)cc2)sc1C(=O)O)c1ccc(-c2ccccc2)cc1`, the half-maximal inhibitory concentration (IC50) is 13 µM.
